# Measurements as given in US6348309B1, “Process for inactivating viruses in blood and blood products” (priority 1989, dated 2002).
# Assays:
# VSV [1] = assay type: cell-based, vesicular stomatitis virus
# HIV-1 = test: MB/light virus inactivation in plasma (Example 6, Table VI); assay type: cell-based; details: illumination 10 min
# HIV-2 = test: as above; assay type: cell-based; details: illumination 15 min; * production conditions, plastic bag 250-300 ml plasma
# SIV = test: as above; assay type: cell-based; details: illumination 15 min; * production conditions, plastic bag 250-300 ml plasma
# Bovine Herpes = test: as above; assay type: cell-based; details: illumination 30 min; * production conditions, plastic bag 250-300 ml plasma
# Sindbis = assay type: cell-based
# Influenza = assay type: cell-based
# SV40 = assay type: cell-based
# adenovirus = test: Photodynamic treatment of adenovirus with pre-incubation in the dark, titrated on FL cells (Example 7); assay type: cell-based; details: MB 1 μM; for Virus Titer: illumination 30 min 150,000 Lux
# coagulation factor V = molecular target: T1, coagulation factor V (Homo sapiens, UniProt P12259); test: Coagulation factor activity in human plasma with MB and light exposure (Example 10); assay type: biochemical
# T1 construct: Varying amounts of MB were added to human plasma (2 ml aliquots); from tissue; host or cells: human plasma
# T1 sequence (P12259 29-2224): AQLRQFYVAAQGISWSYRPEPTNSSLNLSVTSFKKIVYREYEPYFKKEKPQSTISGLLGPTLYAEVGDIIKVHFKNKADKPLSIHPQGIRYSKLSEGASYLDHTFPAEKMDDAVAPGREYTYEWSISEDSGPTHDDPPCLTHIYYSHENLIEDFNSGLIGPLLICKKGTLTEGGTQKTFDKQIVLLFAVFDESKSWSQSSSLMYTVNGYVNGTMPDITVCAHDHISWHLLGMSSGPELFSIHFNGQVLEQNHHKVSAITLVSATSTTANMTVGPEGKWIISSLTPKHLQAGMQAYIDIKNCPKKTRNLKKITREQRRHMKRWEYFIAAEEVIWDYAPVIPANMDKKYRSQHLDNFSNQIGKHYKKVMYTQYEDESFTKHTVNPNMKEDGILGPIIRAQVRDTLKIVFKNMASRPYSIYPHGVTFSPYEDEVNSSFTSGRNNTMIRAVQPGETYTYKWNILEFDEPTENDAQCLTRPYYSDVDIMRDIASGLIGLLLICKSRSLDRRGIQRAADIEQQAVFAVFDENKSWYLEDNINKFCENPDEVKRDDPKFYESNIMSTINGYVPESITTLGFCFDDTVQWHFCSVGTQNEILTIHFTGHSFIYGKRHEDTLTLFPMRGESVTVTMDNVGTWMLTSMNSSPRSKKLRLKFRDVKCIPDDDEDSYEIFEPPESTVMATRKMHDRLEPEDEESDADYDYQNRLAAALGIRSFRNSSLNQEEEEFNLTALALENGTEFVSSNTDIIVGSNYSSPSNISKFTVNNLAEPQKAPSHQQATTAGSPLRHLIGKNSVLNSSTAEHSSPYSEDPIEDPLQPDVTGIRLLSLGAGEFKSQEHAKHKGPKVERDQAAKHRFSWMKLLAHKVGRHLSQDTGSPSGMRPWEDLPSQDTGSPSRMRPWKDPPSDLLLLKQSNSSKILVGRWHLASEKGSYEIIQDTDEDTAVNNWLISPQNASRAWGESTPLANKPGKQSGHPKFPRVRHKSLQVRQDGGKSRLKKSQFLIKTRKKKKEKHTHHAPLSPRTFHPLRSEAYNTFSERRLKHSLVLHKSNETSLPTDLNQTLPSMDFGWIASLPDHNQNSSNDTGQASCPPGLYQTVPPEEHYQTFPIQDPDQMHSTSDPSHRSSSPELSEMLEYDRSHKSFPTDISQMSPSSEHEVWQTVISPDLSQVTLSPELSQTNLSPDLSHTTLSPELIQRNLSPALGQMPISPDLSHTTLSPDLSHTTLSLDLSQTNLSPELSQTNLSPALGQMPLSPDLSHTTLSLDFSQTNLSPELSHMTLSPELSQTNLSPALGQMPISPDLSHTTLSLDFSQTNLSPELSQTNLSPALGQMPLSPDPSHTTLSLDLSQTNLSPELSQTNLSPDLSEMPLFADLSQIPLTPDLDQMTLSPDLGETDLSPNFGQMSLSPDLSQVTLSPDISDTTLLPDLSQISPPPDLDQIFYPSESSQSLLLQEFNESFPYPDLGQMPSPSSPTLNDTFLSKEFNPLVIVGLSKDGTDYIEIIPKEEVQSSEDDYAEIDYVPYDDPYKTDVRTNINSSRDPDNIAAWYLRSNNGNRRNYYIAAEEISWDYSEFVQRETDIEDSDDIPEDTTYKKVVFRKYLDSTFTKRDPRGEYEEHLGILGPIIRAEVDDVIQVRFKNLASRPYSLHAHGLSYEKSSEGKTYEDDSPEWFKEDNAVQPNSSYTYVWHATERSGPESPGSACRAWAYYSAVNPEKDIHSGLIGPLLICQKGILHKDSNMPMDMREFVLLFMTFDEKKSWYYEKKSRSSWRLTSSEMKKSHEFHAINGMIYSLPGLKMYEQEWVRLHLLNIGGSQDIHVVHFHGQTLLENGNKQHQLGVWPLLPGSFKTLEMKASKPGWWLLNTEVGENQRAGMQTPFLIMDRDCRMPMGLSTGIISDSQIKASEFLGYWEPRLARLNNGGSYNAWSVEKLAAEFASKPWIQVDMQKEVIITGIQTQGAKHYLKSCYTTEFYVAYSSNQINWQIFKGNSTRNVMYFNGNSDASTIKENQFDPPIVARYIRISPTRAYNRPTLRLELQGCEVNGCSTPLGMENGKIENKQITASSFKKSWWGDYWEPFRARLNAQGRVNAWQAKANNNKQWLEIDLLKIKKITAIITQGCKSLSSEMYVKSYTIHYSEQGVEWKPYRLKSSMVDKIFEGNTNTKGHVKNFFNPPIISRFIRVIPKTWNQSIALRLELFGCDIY
# coagulation factor IX = molecular target: T2, coagulation factor IX (Homo sapiens, UniProt P00740); test: as above; assay type: biochemical
# T2 construct: Varying amounts of MB were added to human plasma (2 ml aliquots); from tissue; host or cells: human plasma
# T2 sequence (P00740 47-461): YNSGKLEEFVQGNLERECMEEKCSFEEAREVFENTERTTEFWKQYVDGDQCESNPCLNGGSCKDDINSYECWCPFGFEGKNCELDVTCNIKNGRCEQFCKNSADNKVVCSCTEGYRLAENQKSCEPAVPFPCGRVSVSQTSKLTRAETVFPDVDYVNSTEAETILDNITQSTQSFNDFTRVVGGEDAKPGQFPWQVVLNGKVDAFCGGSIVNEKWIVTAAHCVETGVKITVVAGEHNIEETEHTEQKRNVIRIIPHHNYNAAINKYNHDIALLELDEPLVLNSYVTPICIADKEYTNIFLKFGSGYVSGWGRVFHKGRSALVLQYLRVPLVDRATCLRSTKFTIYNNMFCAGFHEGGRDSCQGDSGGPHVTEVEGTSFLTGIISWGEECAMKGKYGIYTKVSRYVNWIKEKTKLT
# VSV [2] = assay type: cell-based, vesicular stomatitis virus; remark: listed apart in the source
# factor VIII = molecular target: T3, factor VIII (Homo sapiens, UniProt P00451); test: Factor VIII content of plasma after MB and adsorbing agent (Example 14); assay type: biochemical; details: fresh plasma + MB 10 μM, no adsorbing agent
# T3 construct: MB was added to 250 ml fresh plasma; from tissue; host or cells: fresh plasma
# T3 sequence (P00451 20-1332 limits assumed): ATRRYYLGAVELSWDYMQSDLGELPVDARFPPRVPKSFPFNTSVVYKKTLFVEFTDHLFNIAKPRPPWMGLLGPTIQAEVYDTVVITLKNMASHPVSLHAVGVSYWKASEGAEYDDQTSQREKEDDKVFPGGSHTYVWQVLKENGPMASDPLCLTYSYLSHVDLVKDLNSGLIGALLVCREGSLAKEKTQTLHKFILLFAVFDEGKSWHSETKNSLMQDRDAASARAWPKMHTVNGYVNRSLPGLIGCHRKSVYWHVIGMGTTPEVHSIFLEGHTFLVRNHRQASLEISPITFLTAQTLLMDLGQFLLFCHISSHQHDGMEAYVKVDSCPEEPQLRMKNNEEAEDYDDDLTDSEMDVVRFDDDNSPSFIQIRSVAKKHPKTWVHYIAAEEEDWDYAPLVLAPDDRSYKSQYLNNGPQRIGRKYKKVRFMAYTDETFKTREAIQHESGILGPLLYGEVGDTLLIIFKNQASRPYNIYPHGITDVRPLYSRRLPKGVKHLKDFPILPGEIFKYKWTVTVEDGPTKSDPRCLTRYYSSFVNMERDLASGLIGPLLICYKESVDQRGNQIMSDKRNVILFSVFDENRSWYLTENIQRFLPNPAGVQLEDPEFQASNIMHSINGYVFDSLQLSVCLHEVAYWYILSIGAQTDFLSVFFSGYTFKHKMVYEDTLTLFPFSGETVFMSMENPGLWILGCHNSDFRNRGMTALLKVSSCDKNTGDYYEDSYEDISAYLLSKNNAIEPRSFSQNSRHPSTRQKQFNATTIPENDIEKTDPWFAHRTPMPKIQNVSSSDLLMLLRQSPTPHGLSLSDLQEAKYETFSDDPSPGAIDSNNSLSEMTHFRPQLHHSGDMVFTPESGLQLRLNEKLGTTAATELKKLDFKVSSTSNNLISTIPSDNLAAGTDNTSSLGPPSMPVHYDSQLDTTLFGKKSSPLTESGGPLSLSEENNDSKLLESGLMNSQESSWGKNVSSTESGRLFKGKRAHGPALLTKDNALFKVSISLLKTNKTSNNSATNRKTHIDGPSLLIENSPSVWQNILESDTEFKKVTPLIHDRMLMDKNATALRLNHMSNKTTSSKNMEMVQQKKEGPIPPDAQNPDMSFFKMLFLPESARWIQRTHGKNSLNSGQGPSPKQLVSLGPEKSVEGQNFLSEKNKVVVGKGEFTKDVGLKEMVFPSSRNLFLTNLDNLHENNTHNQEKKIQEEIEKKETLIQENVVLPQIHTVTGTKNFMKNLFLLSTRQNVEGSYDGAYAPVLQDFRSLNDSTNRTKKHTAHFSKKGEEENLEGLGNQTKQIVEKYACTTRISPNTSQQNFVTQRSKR
# T3 sequence (P00451 1668-2351 limits assumed): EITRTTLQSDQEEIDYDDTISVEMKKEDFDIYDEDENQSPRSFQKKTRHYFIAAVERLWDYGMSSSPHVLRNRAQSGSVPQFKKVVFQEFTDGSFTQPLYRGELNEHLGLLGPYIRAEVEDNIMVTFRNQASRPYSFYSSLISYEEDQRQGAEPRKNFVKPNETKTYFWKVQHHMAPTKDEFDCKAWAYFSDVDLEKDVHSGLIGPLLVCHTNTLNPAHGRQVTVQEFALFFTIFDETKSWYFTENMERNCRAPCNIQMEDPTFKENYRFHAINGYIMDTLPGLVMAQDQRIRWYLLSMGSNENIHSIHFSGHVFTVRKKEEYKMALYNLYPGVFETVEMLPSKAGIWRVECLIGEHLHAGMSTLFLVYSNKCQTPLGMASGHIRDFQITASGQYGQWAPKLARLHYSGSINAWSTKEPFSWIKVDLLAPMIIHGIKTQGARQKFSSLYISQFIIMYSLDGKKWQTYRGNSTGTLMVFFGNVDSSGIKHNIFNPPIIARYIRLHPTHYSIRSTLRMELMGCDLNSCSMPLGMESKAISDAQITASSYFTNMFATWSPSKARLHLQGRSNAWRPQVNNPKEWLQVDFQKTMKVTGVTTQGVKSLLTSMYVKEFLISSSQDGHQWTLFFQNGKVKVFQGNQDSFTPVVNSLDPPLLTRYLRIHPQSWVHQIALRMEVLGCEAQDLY
# factor V = molecular target: T4, factor V (Homo sapiens, UniProt P12259); test: Factor V content of plasma after MB and adsorbing agent (Example 14); assay type: biochemical; details: fresh plasma + MB 10 μM, no adsorbing agent
# T4 construct: MB was added to 250 ml fresh plasma; from tissue; host or cells: fresh plasma
# T4 sequence (P12259 29-2224): as the sequence (P12259 29-2224) above
smiles,measurement,setting,value
"CN(C)c1ccc2nc3ccc(=[N+](C)C)cc-3sc2c1 [MB, methylene blue]",concentration of MB required for complete inactivation of VSV,VSV [1],0.5 µM
same,inactivation factor (VSV completely inactivated),VSV [1],more than 4 log10
same,Inactivation Rate,HIV-1,>6.50 log10 TCID50
same,Inactivation Rate,HIV-2,>3.81 * log10 TCID50
same,Inactivation Rate,SIV,>6.26 * log10 TCID50
same,Inactivation Rate,Bovine Herpes,>8.11 * log10 TCID50
same,Inactivation Rate,Sindbis,>9.73 log10 TCID50
same,Inactivation Rate,Influenza,5.10 log10 TCID50
same,Inactivation Rate,SV40,>4.00 log10 TCID50
same,Virus Titer,adenovirus; pre-incubation 0 h,6.0 log10 TCID50
same,Virus Titer,adenovirus; pre-incubation 1 h,5.5 log10 TCID50
same,Virus Titer,adenovirus; pre-incubation 4 h,6.0 log10 TCID50
same,Virus Titer,adenovirus; pre-incubation 24 h,6.0 log10 TCID50
same,change in viral infectivity,adenovirus; regardless of the pre-incubation time,no change in viral infectivity
same,Factor V,"coagulation factor V; light exposure 0 h, MB 1 μM",0.86 E/ml
same,Factor V,"coagulation factor V; light exposure 0 h, MB 2.5 μM",0.82 E/ml
same,Factor V,"coagulation factor V; light exposure 0 h, MB 10 μM",0.72 E/ml
same,Factor V,"coagulation factor V; light exposure 1 h, MB 1 μM",0.72 E/ml
same,Factor V,"coagulation factor V; light exposure 1 h, MB 2.5 μM",0.68 E/ml
same,Factor V,"coagulation factor V; light exposure 1 h, MB 10 μM",0.47 E/ml
same,Factor V,"coagulation factor V; light exposure 2 h, MB 1 μM",0.64 E/ml
same,Factor V,"coagulation factor V; light exposure 2 h, MB 2.5 μM",0.68 E/ml
same,Factor V,"coagulation factor V; light exposure 2 h, MB 10 μM",0.60 E/ml
same,Factor V,"coagulation factor V; light exposure 4 h, MB 1 μM",0.56 E/ml
same,Factor V,"coagulation factor V; light exposure 4 h, MB 2.5 μM",0.49 E/ml
same,Factor V,"coagulation factor V; light exposure 4 h, MB 10 μM",0.42 E/ml
same,Factor IX,"coagulation factor IX; light exposure 0 h, MB 1 μM",1.20 E/ml
same,Factor IX,"coagulation factor IX; light exposure 0 h, MB 2.5 μM",0.46 E/ml
same,Factor IX,"coagulation factor IX; light exposure 0 h, MB 10 μM",0.44 E/ml
same,Factor IX,"coagulation factor IX; light exposure 1 h, MB 1 μM",0.92 E/ml
same,Factor IX,"coagulation factor IX; light exposure 1 h, MB 2.5 μM",0.82 E/ml
same,Factor IX,"coagulation factor IX; light exposure 1 h, MB 10 μM",0.68 E/ml
same,Factor IX,"coagulation factor IX; light exposure 2 h, MB 1 μM",0.90 E/ml
same,Factor IX,"coagulation factor IX; light exposure 2 h, MB 2.5 μM",0.72 E/ml
same,Factor IX,"coagulation factor IX; light exposure 2 h, MB 10 μM",0.74 E/ml
same,Factor IX,"coagulation factor IX; light exposure 4 h, MB 1 μM",0.94 E/ml
same,Factor IX,"coagulation factor IX; light exposure 4 h, MB 2.5 μM",0.82 E/ml
same,Factor IX,"coagulation factor IX; light exposure 4 h, MB 10 μM",0.64 E/ml
same,inactivation of VSV,VSV [2],only partial inactivation
same,time until viral infectivity almost completely reduced to the detection limit,VSV [2],15 to 30 min
same,Factor VIII,factor VIII,0.42 U/ml
same,Factor V,factor V,0.96 U/ml
